US20040127492A1 (Pharmacia Corporation, priority 2002, published 2004)
Structures can show the parent of a compound that is named as a salt. Where two headings read alike, the source gives them in different places.

Target: MAPKAPK2 (MK-2) (Homo sapiens, UniProt P49137)
Experiment: Determination of MK-2 IC50 (HSP-peptide phosphorylation, anion exchange resin capture assay)
Assay type: biochemical
Method: Determination of MK-2 IC50:
Recombinant MAPKAPK2 was phosphorylated at a concentration of 42-78 μM by incubation with 0.23 μM of active p38α in 50 mM HEPES, 0.1 mM EDTA, 10 mM magnesium acetate, and 0.25 mM ATP, pH 7.5 for one hour at 30° C.
The phosphorylation of HSP-peptide ([…]) by MAPKAPK2 was measured using an anion exchange resin capture assay method. The reaction was carried out in 50 mM β-glycerolphosphate, 0.04% BSA, 10 mM magnesium acetate, 2% DMSO and 0.8 mM dithiotheritol, pH 7.5 in the presence of the HSP-peptide with 0.2 μCi [γ^33P]ATP and 0.03 mM ATP. The reaction was initiated by the addition of 15 nM MAPKAPK2 and was allowed to incubate at 30° C. for 30 min. The reaction was terminated and [γ^33P]ATP was removed from solution by the addition of 150 μl of AG 1×8 ion exchange resin in 900 mM sodium formate pH 3.0. A 50 μl aliquot of head volume was removed from the quenched reaction mixture and added to a 96-well plate, 150 μl of Microscint-40 (Packard) was added and the amount of phosphorylated-peptide was determined. Allow the Microscint to sit in the plates for 60 minutes prior to counting.
Compounds are evaluated as potential inhibitors of the MK-2 kinase by measuring their effects on MK-2 phosphorylation of the peptide substrate. Compounds may be screened initially at two concentrations prior to determination of IC50 values. Screening results are expressed as percent inhibition at the concentrations of compound tested. For IC50 value determinations, Compounds are tested at six concentrations in ten-fold serial dilutions with each concentration tested in triplicate. Results are expressed as IC50 values in micromolar. The assay is performed at a final concentration of 2% DMSO.

[1] = Table 1, phenoxypyrazole MK-2 inhibitors, read-out: MK-2 Avg, IC50
[2] = Table 2, pyrazolylpyrazole MK-2 inhibitors, read-out: MK-2 Avg. IC50
[3] = Table 4, pyrimidylpyrazole MK-2 inhibitors, read-out: MK-2 Avg. IC50

Chain of MAPKAPK2 (MK-2) (P49137 whole entry, species assumed): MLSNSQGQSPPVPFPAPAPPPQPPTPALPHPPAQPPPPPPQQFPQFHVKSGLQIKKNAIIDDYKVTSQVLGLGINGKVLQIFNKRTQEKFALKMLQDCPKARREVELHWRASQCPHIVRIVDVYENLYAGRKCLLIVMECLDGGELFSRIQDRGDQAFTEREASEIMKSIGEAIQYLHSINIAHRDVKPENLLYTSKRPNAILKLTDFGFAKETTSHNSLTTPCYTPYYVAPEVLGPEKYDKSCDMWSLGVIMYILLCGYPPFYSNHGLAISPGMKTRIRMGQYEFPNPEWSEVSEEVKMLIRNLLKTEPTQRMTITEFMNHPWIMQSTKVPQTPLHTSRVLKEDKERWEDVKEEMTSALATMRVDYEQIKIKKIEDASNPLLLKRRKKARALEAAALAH

Row | IC50 (read-out: MK-2 Avg. IC50) [µM] | SMILES | other results
1 |  | CCC(C)Nc1cc2c(cc1O)CCc1c-2nn(CCCN)c1C(=O)O (stereo not drawn) [Example 35] | IC50 [1]: 45.9 µM
2 | 20.1 | CCCn1nc2c(c1C(=O)O)CCc1cnccc1-2 [Example 187] | 
3 |  | CCOC(=O)c1[nH]nc2c1CCc1[nH]nc([S+](C)[O-])c1-2 (stereo not drawn) [Example 63] | IC50 [2]: ≥ 200 µM
4 | 16.5 | NCCCn1nc2c(c1C(=O)O)CCc1c-2ccnc1Cl [Example 179] | 
5 | 25.3 | NC(=O)NCCCn1nc2c(c1C(=O)O)CCc1cnccc1-2 [Example 192] | 
6 | 78.7 | O=S(=O)(Cc1ccc(Cl)cc1)NC1CCCn2nc3c(c21)CCc1cnccc1-3 (stereo not drawn) [Example 232] | 
7 | 94.2 | O=C1NCCn2nc3c(c21)CCc1cnc(Cc2ccc(Cl)cc2)cc1-3 [Example 243] | 
8 | 52 | c1ccc2ncc(-c3cc4c(cn3)CCc3c[nH]nc3-4)cc2c1 [Example 212] | 
9 | 17.9 | N#Cc1cccc(NC(=O)NCCCn2nc3c(c2C(=O)O)CCc2cnccc2-3)c1 [Example 184] | 
10 | 55.3 | C=CCNC(=O)NCCCn1nc2c(c1C(=O)O)CCc1cnccc1-2 [Example 217] | 
11 | 62.1 | CCC(CC)CNCCn1nc2c(c1C(=O)O)CCc1cnccc1-2 [Example 221] | 
12 | 27.9 | NC(=O)C1Cn2nc3c(c2C(=O)N1)CCc1cnc(-c2cnc4ccccc4c2)cc1-3 (stereo not drawn) [Example 195] | 
13 | 161 | COC(=O)c1c2c(nn1CCO)-c1ccncc1CC2 [Example 271, hydrochloride] | 
14 | 163 | O=C(O)c1c2c(nn1CC(O)CNCCc1cccs1)-c1ccncc1CC2 (stereo not drawn) [Example 273] | 
15 |  | NCCCn1nc(C(N)=O)c2c1-c1cn[nH]c1CC2 [Example 28] | IC50 [2]: 104 µM
16 | 10.1 | O=C(O)c1c2c(nn1CCCNCc1cnc[nH]1)-c1ccncc1CC2 [Example 160] | 
17 | 80.6 | Cc1ccc(S(=O)(=O)NC(=O)NCCCn2nc3c(c2C(=O)O)CCc2cnccc2-3)cc1 [Example 233] | 
18 | 54.8 | NCCCN1CCn2nc3c(c2C1=O)CCc1cnccc1-3 [Example 216] | 
19 | 112 | CC(C)(C)OC(=O)NCCCn1nc2c(c1C(=O)O)CCc1cnc(Cl)cc1-2 [Example 254] | 
20 |  | O=C1NCCCn2nc3c(c21)CCc1cnc(-c2cnc4ccccc4c2)nc1-3 [Example 4] | IC50 [3]: 1.47 µM
21 | 76.6 | Cn1nc2c(c1C(=O)O)CCc1cnccc1-2 [Example 231] | 
22 | 21.9 | CC(C)NCCCn1nc2c(c1C(=O)O)CCc1cnccc1-2 [Example 190] | 
23 | 156 | CN1CCn2nc3c(c2C1=O)CCc1cnccc1-3 [Example 270] | 
24 | 17.9 | N#CCCCn1nc2c(c1C(=O)O)CCc1cnccc1-2 [Example 183] | 
25 | 119 | C=CCn1nc2c(c1C(N)=O)CCc1cnc(-c3cnc4ccccc4c3)cc1-2 [Example 258] | 
26 |  | ON=C1CCCn2nc3c(c21)CCc1cnccc1-3 [Example 263] | IC50 (MK-2 Avg. IC50): 131 µM
27 |  | Nc1cccc(-c2cc3c(cc2O)CCc2c-3nn3c2C(=O)NCCC3)c1 [Example 51] | IC50 [1]: 105 µM

Row | IC50 (read-out: MK-2 Avg. IC50) [µM] | SMILES | other results
28 | 100 | NCCCn1nc(-c2nnn[nH]2)c2c1-c1ccncc1CC2 [Example 247] | 
29 | 30.1 | COc1ccc(CC(=O)NCCCn2nc3c(c2C(=O)O)CCc2cnccc2-3)cc1 [Example 198] | 
30 | 93.4 | O=C1NCCCn2nc3c(c21)CCc1cnc(-c2ccc(OCc4ccccc4)cc2)cc1-3 [Example 242] | 
31 |  | COC(=O)c1c2c(nn1CCCNC(=O)OC(C)(C)C)-c1cc(-c3cccc(Cl)c3)c(OC)cc1CC2 [Example 131] | IC50 [1]: > 200 µM
32 | 29.4 | CCC(CC)CNCCCCn1nc2c(c1C(=O)O)CCc1cnccc1-2 [Example 197] | 
33 | 36.8 | O=C(O)c1c2c(nn1CC(O)CNCc1cccs1)-c1ccncc1CC2 (stereo not drawn) [Example 206] | 
34 |  | NC(=O)c1[nH]nc2c1CCc1[nH]nc(SCc3ccccc3)c1-2 [Example 25] | IC50 [2]: 80.7 µM
35 | 171 | COC(=O)c1[nH]nc2c1CCc1cnccc1-2 [Example 275] | 
36 | 66.1 | O=C(Cc1cccs1)NCCCn1nc2c(c1C(=O)O)CCc1cnccc1-2 [Example 226] | 
37 | 103 | CCCn1nc2c(c1C(N)=O)CCc1cnc(-c3cnc4ccccc4c3)cc1-2 [Example 252] | 
38 | 86.1 | c1cc2c(cn1)CCc1c[nH]nc1-2 [Example 238] | 
39 |  | CS(=O)(=O)c1n[nH]c2c1-c1n[nH]c(C(N)=O)c1CC2 [Example 58] | IC50 [2]: ≥ 200 µM
40 |  | COc1cc2c(cc1Cc1ccccc1)-c1nn(CCCNC(=O)OC(C)(C)C)c(C(=O)O)c1CC2 [Example 63] | IC50 [1]: 154 µM
41 | 36.4 | O=C1NCCn2nc3c(c21)CCc1cnc(-c2ccc(OCc4ccccc4)cc2)cc1-3 [Example 205] | 
42 | 35.6 | CC(C)(C)CCc1cc2c(cn1)CCc1c-2nn2c1C(=O)NCC2 [Example 202] | 
43 | 189 | NCCCNC(=O)c1[nH]nc2c1CCc1cnccc1-2 [Example 278] | 
44 |  | CC(C)Cc1cc2c(cc1O)CCc1c-2nn(CCCN)c1C(=O)O [Example 25] | IC50 [1]: 20.8 µM
45 | 135 | CNC(=O)c1[nH]nc2c1CCc1cnccc1-2 [Example 265] | 
46 | 136 | NC1CCN(CC(O)Cn2nc3c(c2C(=O)O)CCc2cnccc2-3)CC1 (stereo not drawn) [Example 266] | 
47 |  | CCOC(=O)c1[nH]nc2c1CCc1[nH]nc(SCc3ccccc3)c1-2 [Example 61] | IC50 [2]: ≥ 200 µM
48 | 198 | O=C(O)c1c2c(nn1CC(O)CN1CCNCC1)-c1ccncc1CC2 (stereo not drawn) [Example 283] | 
49 |  | CSc1n[nH]c2c1-c1n[nH]c(C(=O)O)c1CC2 [Example 64] | IC50 [2]: ≥ 200 µM
50 | 96.5 | FC(F)c1[nH]nc2c1CCc1cnccc1-2 [Example 244] | 
51 |  | NC(=O)Cn1nc(C(N)=O)c2c1-c1cn[nH]c1CC2 [Example 57] | IC50 [2]: ≥ 200 µM
52 | 15.5 | CN(C)CCCn1nc2c(c1C(=O)O)CCc1cnccc1-2 [Example 177] | 
53 | 50.1 | NC(=O)CCCn1nc2c(c1C(=O)O)CCc1cnccc1-2 [Example 211] | 
54 | 17.4 | O=C(CO)NCCn1nc2c(c1C(=O)O)CCc1cnccc1-2 [Example 181] | 

Row | IC50 (read-out: MK-2 Avg. IC50) [µM] | SMILES | other results
55 |  | NCCCn1nc2c(c1C(=O)O)CCc1c-2cc(-c2cccc([N+](=O)[O-])c2)c(O)c1Cl [Example 43] | IC50 [1]: 74.3 µM
56 | 33.3 | N#CC1CCn2nc3c(c2C(=O)N1)CCc1cnccc1-3 (stereo not drawn) [Example 199] | 
57 | 164 | Cn1cnc(S(=O)(=O)NCCCn2nc3c(c2C(=O)O)CCc2cnccc2-3)c1 [Example 274] | 
58 | 162 | O=C(O)c1c2c(nn1CC(O)CN1CCCC1)-c1ccncc1CC2 (stereo not drawn) [Example 272, hydrochloride] | 
59 | 15 | O=C1NCCn2nc3c(c21)CCc1cnc(N2CCc4ccccc4C2)cc1-3 [Example 175] | 
60 |  | O=C(O)c1[nH]nc2c1CCc1cc(O)c(Br)cc1-2 [Example 66] | IC50 [1]: 163 µM
61 |  | C[S+]([O-])c1n[nH]c2c1-c1n[nH]c(C(=O)O)c1CC2 (stereo not drawn) [Example 62] | IC50 [2]: ≥ 200 µM
62 |  | COc1ccc(-c2ncc3c(n2)-c2nn4c(c2CC3)C(=O)NCCC4)cc1 [Example 8] | IC50 [3]: 4.52 µM
63 | 33.5 | NCCCn1nc2c(c1CCl)CCc1cnccc1-2 [Example 201] | 
64 |  | CSc1n[nH]c2c1-c1n[nH]c(C(N)=O)c1CC2 [Example 18] | IC50 [2]: 30.3 µM
65 | 101 | CN(c1ccccc1)c1cc2c(cn1)CCc1c-2nn2c1C(=O)NCC2 [Example 250] | 
66 | 98.3 | O=C1NCCn2nc3c(c21)CCc1cnc(-c2cccc4ncccc24)cc1-3 [Example 246] | 
67 | 42.5 | CCOC(=O)NC(=O)NCCCn1nc2c(c1C(=O)O)CCc1cnccc1-2 [Example 209] | 
68 |  | O=C1NCCCn2nc3c(c21)CCc1cnc(-c2ccncc2)nc1-3 [Example 9] | IC50 [3]: 8.62 µM
69 | 62.5 | C#Cc1cnc2c(c1)-c1nn(CCN)c(C(=O)OCC)c1CC2 [Example 222] | 
70 | 33.3 | CC(C)S(=O)(=O)NCCCn1nc2c(c1C(=O)O)CCc1cnccc1-2 [Example 200] | 
71 | 11.8 | O=C1NC(C(O)CO)Cn2nc3c(c21)CCc1cnccc1-3 (stereo not drawn) [Example 167] | 
72 | 14.6 | O=C(O)c1c2c(nn1CCCNCCN1CCCC1)-c1ccncc1CC2 [Example 174] | 
73 | 16.5 | COC(=O)C1Cn2nc3c(c2C(=O)N1)CCc1cnccc1-3 (stereo not drawn) [Example 180] | 
74 | 69.3 | CN(C)CC(O)Cn1nc2c(c1C(=O)N(C)C)CCc1cnccc1-2 (stereo not drawn) [Example 228] | 
75 |  | O=C(O)c1[nH]nc2c1CCc1[nH]nc(SCc3ccccc3)c1-2 [Example 60] | IC50 [2]: ≥ 200 µM
76 | 39.4 | O=C(O)c1c2c(nn1CCCNc1cccnc1)-c1ccncc1CC2 [Example 208] | 
77 | 75.4 | C=CCn1nc2c(c1C(=O)O)CCc1c[n+]([O-])ccc1-2 [Example 230] | 
78 | 10.4 | O=C(NCCCn1nc2c(c1C(=O)O)CCc1cnccc1-2)c1cccnc1 [Example 162] | 
79 | 87.6 | NC(=O)C1CCN(CC(O)Cn2nc3c(c2C(=O)O)CCc2cnccc2-3)CC1 (stereo not drawn) [Example 240] | 
80 | 141 | COc1cccc(S(=O)(=O)NCCCn2nc3c(c2C(=O)O)CCc2cnccc2-3)c1 [Example 267] | 

Row | SMILES | IC50 (read-out: MK-2 Avg. IC50) [µM] | other results
81 | O=C1NCCn2nc3c(c21)CCc1cnc(N2CCNCC2)cc1-3 [Example 225] | 64.9 | 
